The nature of data set [1]: Solid stability test (stability chamber, HPLC total impurity). It counts as physicochemical.
Data set [2] can be described thus: Determination of solubility in deionized water (HPLC, external standard). The following applies: for solubility at 30 min: 25 °C, water, thermodynamic from solid; for Solubility: 25±2° C., after 30 min.
[3] abbreviates: solid, packaged, 25° C.±2° C., relative humidity 60%±2%.

The results in this text go back to patent publication US10517867B2, “Posaconazole derivative, pharmaceutical composition and use thereof” (priority 2016, dated 2019).

SMILES strings stand for the structures. Read-outs that look alike come from different tables or passages of the source. Bounds are passed on as bounds.

A word on the solubility: it is the concentration that dissolves in the medium under given conditions. A lower solubility goes with little dissolved substance. A word on the Solubility: it is how much of the substance goes into solution per volume.

Turning to `CC[C@@H](C(C)OC(=O)OC(C)OC(=O)CN(C)C)n1ncn(-c2ccc(N3CCN(c4ccc(OC[C@@H]5CO[C@@](Cn6cncn6)(c6ccc(F)cc6F)C5)cc4)CC3)cc2)c1=O` (stereo partly drawn) [Compound 0058], the “Total impurity increment in 30 days” value in data set [1] (setting [3]) worked out at 0.47%.
The same measure, in the same setting: next, `CC[C@@H]([C@H](C)O)n1ncn(-c2ccc(N3CCN(c4ccc(OC[C@@H]5CO[C@@](Cn6c[n+](CC(=O)[O-])cn6)(c6ccc(F)cc6F)C5)cc4)CC3)cc2)c1=O.[Cl-].[Na+]` [ST0021]: 0.97%.
In turn, `CC[C@@H]([C@H](C)O)n1ncn(-c2ccc(N3CCN(c4ccc(OC[C@@H]5CO[C@@](Cn6c[n+](C(C)OC(=O)NC7O[C@H](CO)[C@H](O)[C@H]7OC(=O)CNC)cn6)(c6ccc(F)cc6F)C5)cc4)CC3)cc2)c1=O` (stereo partly drawn) [ST0028] had a solubility at 30 min in data set [2] of 35.7 mg/mL. The “Total impurity increment in 30 days” value in data set [1] worked out at 1.62%.
The molecule `CC[C@@H]([C@H](C)O)n1ncn(-c2ccc(N3CCN(c4ccc(OC[C@@H]5CO[C@@](Cn6c[n+](C(C)OC(=O)SC[C@H](N)C(=O)O)cn6)(c6ccc(F)cc6F)C5)cc4)CC3)cc2)c1=O` (stereo partly drawn) [ST0030] showed a solubility at 30 min in data set [2] of 21.8 mg/mL.
Molecule `CC[C@@H]([C@H](C)O)n1ncn(-c2ccc(N3CCN(c4ccc(OC[C@@H]5CO[C@@](Cn6c[n+](C(C)OC(=O)N(C)c7ncccc7CN)cn6)(c6ccc(F)cc6F)C5)cc4)CC3)cc2)c1=O` (stereo partly drawn) [ST0032] had a solubility at 30 min in data set [2] of 30.5 mg/mL.
For `CC[C@@H]([C@H](C)O)n1ncn(-c2ccc(N3CCN(c4ccc(OC[C@@H]5CO[C@@](Cn6c[n+](C(C)OC(=O)SCC(=O)[O-])cn6)(c6ccc(F)cc6F)C5)cc4)CC3)cc2)c1=O.[Cl-].[Na+]` (stereo partly drawn) [ST0034], the “Total impurity increment in 30 days” value in data set [1] (setting [3]) amounted to 1.85%.
Still for that read-out and setting: under `CC[C@@H]([C@H](C)O)n1ncn(-c2ccc(N3CCN(c4ccc(OC[C@@H]5CO[C@@](Cn6c[n+](C(C)OC(=O)OCCS)cn6)(c6ccc(F)cc6F)C5)cc4)CC3)cc2)c1=O` (stereo partly drawn) [ST0036] stands 0.87%.
Consider `CC[C@@H]([C@H](C)O)n1ncn(-c2ccc(N3CCN(c4ccc(OC[C@@H]5CO[C@@](Cn6c[n+](C(C)OC(=O)N(C)c7ncccc7CNC)cn6)(c6ccc(F)cc6F)C5)cc4)CC3)cc2)c1=O` (stereo partly drawn) [ST0037], for which, in data set [2], the solubility at 30 min was more than 50 mg/mL.
For `CC[C@@H]([C@H](C)O)n1ncn(-c2ccc(N3CCN(c4ccc(OC[C@@H]5CO[C@@](Cn6c[n+](C(C)OC(=O)N(C)c7ncccc7COC(=O)[C@@H](N)CCCNC)cn6)(c6ccc(F)cc6F)C5)cc4)CC3)cc2)c1=O` (stereo partly drawn) [ST0038], the solubility at 30 min in data set [2] is more than 50 mg/mL. In addition, the “Total impurity increment in 30 days” value in data set [1] is recorded as 1.06%.
Consider `CC[C@@H]([C@H](C)O)n1ncn(-c2ccc(N3CCN(c4ccc(OC[C@@H]5CO[C@@](Cn6c[n+](C(C)OC(=O)N(C)c7ncccc7COC(=O)[C@@H](N)CCNC)cn6)(c6ccc(F)cc6F)C5)cc4)CC3)cc2)c1=O` (stereo partly drawn) [ST0040], for which, in data set [2], the solubility at 30 min was more than 50 mg/mL. Moreover, in data set [1] (setting [3]), the “Total impurity increment in 30 days” value amounted to 1.34%.
On the same counts, the results for `CC[C@@H]([C@H](C)O)n1ncn(-c2ccc(N3CCN(c4ccc(OC[C@@H]5CO[C@@](Cn6c[n+](C(C)OC(=O)OCCOP(=O)(O)O)cn6)(c6ccc(F)cc6F)C5)cc4)CC3)cc2)c1=O` (stereo partly drawn) [ST0042] are more than 50 mg/mL and 1.05%.
Take `CC[C@@H]([C@H](C)OC(=O)OC(C)OC(=O)CC(=O)[O-])n1ncn(-c2ccc(N3CCN(c4ccc(OC[C@@H]5CO[C@@](Cn6cncn6)(c6ccc(F)cc6F)C5)cc4)CC3)cc2)c1=O.[Na+]` (stereo partly drawn) [ST0048]: the “Total impurity increment in 30 days” value in data set [1] (setting [3]) was 0.95%.
`CC[C@@H]([C@H](C)OC(=O)OC(C)OC(=O)CN(C)P(=O)([O-])[O-])n1ncn(-c2ccc(N3CCN(c4ccc(OC[C@@H]5CO[C@@](Cn6cncn6)(c6ccc(F)cc6F)C5)cc4)CC3)cc2)c1=O.[Na+].[Na+]` (stereo partly drawn) [ST0054]: the Solubility in data set [2] is 40.9 mg/mL.
Take `CC[C@@H]([C@H](C)OC(=O)OC(C)OC(=O)CNP(=O)([O-])[O-])n1ncn(-c2ccc(N3CCN(c4ccc(OC[C@@H]5CO[C@@](Cn6cncn6)(c6ccc(F)cc6F)C5)cc4)CC3)cc2)c1=O.[Na+].[Na+]` (stereo partly drawn) [ST0055]: in data set [2], the Solubility was 35.4 mg/mL. For the same molecule, in data set [1] (setting [3]), the “Total impurity increment in 30 days” value is on record as 0.85%.
As for `CC[C@@H](C(C)OC(=O)OC(C)OC(=O)CN(C)S(=O)(=O)[O-])n1ncn(-c2ccc(N3CCN(c4ccc(OC[C@@H]5CO[C@@](Cn6cncn6)(c6ccc(F)cc6F)C5)cc4)CC3)cc2)c1=O.[Na+]` (stereo partly drawn) [ST0056], the solubility at 30 min in data set [2] was more than 50 mg/mL.
Molecule `CC[C@@H](C(C)OC(=O)OC(C)OC(=O)CNS(=O)(=O)[O-])n1ncn(-c2ccc(N3CCN(c4ccc(OC[C@@H]5CO[C@@](Cn6cncn6)(c6ccc(F)cc6F)C5)cc4)CC3)cc2)c1=O.[Na+]` (stereo partly drawn) [ST0057] had a solubility at 30 min in data set [2] of more than 50 mg/mL. In addition, the “Total impurity increment in 30 days” value in data set [1] (setting [3]) is 1.96%.
For the molecule `CC[C@@H]([C@H](C)OC(=O)OCCOP(=O)([O-])[O-])n1ncn(-c2ccc(N3CCN(c4ccc(OC[C@@H]5CO[C@@](Cn6cncn6)(c6ccc(F)cc6F)C5)cc4)CC3)cc2)c1=O.[Na+].[Na+]` [ST0059], the solubility at 30 min in data set [2] was more than 50 mg/mL.
In the case of `CC[C@@H]([C@H](C)OC(=O)OCCOCCOP(=O)([O-])[O-])n1ncn(-c2ccc(N3CCN(c4ccc(OC[C@@H]5CO[C@@](Cn6cncn6)(c6ccc(F)cc6F)C5)cc4)CC3)cc2)c1=O.[Na+].[Na+]` [ST0060], the Solubility in data set [2] is given as more than 50 mg/mL. Moreover, the “Total impurity increment in 30 days” value in data set [1] (setting [3]) was determined as 0.83%.
With `CC[C@@H]([C@H](C)OC(=O)OCCOCCOCCOP(=O)([O-])[O-])n1ncn(-c2ccc(N3CCN(c4ccc(OC[C@@H]5CO[C@@](Cn6cncn6)(c6ccc(F)cc6F)C5)cc4)CC3)cc2)c1=O.[Na+].[Na+]` [ST0061], the solubility at 30 min in data set [2] was more than 50 mg/mL.
The same measure, in the same setting: under `CC[C@@H]([C@H](C)OC(=O)OC(C)OC(=O)CCCOP(=O)([O-])[O-])n1ncn(-c2ccc(N3CCN(c4ccc(OC[C@@H]5CO[C@@](Cn6cncn6)(c6ccc(F)cc6F)C5)cc4)CC3)cc2)c1=O.[Na+].[Na+]` (stereo partly drawn) [ST0062] stands more than 50 mg/mL; under `CC[C@@H]([C@H](C)OC(=O)OC(C)OC(=O)COP(=O)([O-])[O-])n1ncn(-c2ccc(N3CCN(c4ccc(OC[C@@H]5CO[C@@](Cn6cncn6)(c6ccc(F)cc6F)C5)cc4)CC3)cc2)c1=O.[Na+].[Na+]` (stereo partly drawn) [ST0065], more than 50 mg/mL.
Same read-out and setting: next, `CC[C@@H](C(C)OC(=O)OC(C)OC(=O)CCCCOP(=O)([O-])[O-])n1ncn(-c2ccc(N3CCN(c4ccc(OC[C@@H]5CO[C@@](Cn6cncn6)(c6ccc(F)cc6F)C5)cc4)CC3)cc2)c1=O.[Na+].[Na+]` (stereo partly drawn) [ST0068]: more than 50 mg/mL.
As for `CC[C@@H](C(C)OC(=O)OC(C)OC(=O)CCCCCCCOP(=O)([O-])[O-])n1ncn(-c2ccc(N3CCN(c4ccc(OC[C@@H]5CO[C@@](Cn6cncn6)(c6ccc(F)cc6F)C5)cc4)CC3)cc2)c1=O.[Na+].[Na+]` (stereo partly drawn) [ST0069], the concentration in solution in data set [2] (solubility at 30 min) came to 43.7 mg/mL.
The same measure, in the same setting: next, `CC[C@@H](C(C)OC(=O)OC(C)OC(=O)CCCCCCCCOP(=O)([O-])[O-])n1ncn(-c2ccc(N3CCN(c4ccc(OC[C@@H]5CO[C@@](Cn6cncn6)(c6ccc(F)cc6F)C5)cc4)CC3)cc2)c1=O.[Na+].[Na+]` (stereo partly drawn) [ST0071]: 23.4 mg/mL; `CC[C@@H](C(C)OC(=O)OC(C)OC(=O)COS(=O)(=O)[O-])n1ncn(-c2ccc(N3CCN(c4ccc(OC[C@@H]5CO[C@@](Cn6cncn6)(c6ccc(F)cc6F)C5)cc4)CC3)cc2)c1=O.[Na+]` (stereo partly drawn) [ST0075]: more than 50 mg/mL.
In data set [2], `CC[C@@H](C(C)OC(=O)OC(C)OC(=O)CCOS(=O)(=O)[O-])n1ncn(-c2ccc(N3CCN(c4ccc(OC[C@@H]5CO[C@@](Cn6cncn6)(c6ccc(F)cc6F)C5)cc4)CC3)cc2)c1=O.[Na+]` (stereo partly drawn) [ST0076] came in with a solubility at 30 min of more than 50 mg/mL.
`CC[C@@H]([C@H](C)OC(=O)OC(C)OC(=O)CCCCCCOS(=O)(=O)[O-])n1ncn(-c2ccc(N3CCN(c4ccc(OC[C@@H]5CO[C@@](Cn6cncn6)(c6ccc(F)cc6F)C5)cc4)CC3)cc2)c1=O.[Na+]` (stereo partly drawn) [ST0081] yielded a solubility at 30 min in data set [2] of more than 50 mg/mL.
With `CC[C@@H]([C@H](C)OC(=O)OC(C)OC(=O)C(O)COP(=O)([O-])[O-])n1ncn(-c2ccc(N3CCN(c4ccc(OC[C@@H]5CO[C@@](Cn6cncn6)(c6ccc(F)cc6F)C5)cc4)CC3)cc2)c1=O.[Na+].[Na+]` (stereo partly drawn) [ST0089], in data set [2], the concentration in solution (solubility at 30 min) came to 25.2 mg/mL.
`CC[C@@H]([C@H](C)OS(=O)(=O)[O-])n1ncn(-c2ccc(N3CCN(c4ccc(OC[C@@H]5CO[C@@](Cn6cncn6)(c6ccc(F)cc6F)C5)cc4)CC3)cc2)c1=O.[Na+]` [ST0095]: the solubility at 30 min in data set [2] was more than 50 mg/mL.
As to `CC[C@@H]([C@H](C)O)n1ncn(-c2ccc(N3CCN(c4ccc(OC[C@@H]5CO[C@@](Cn6c[n+](C(C)OC(=O)N(C)c7ncccc7COC(=O)CN)cn6)(c6ccc(F)cc6F)C5)cc4)CC3)cc2)c1=O` (stereo partly drawn) [ST0101], the “Total impurity increment in 30 days” value in data set [1] (setting [3]) worked out at 0.47%.
Still for that read-out and setting: under `CC[C@@H]([C@H](C)O)n1ncn(-c2ccc(N3CCN(c4ccc(OC[C@@H]5CO[C@@](Cn6c[n+](C(C)OC(=O)N(C)c7ncccc7COC(=O)[C@@H](N)CCC(N)=O)cn6)(c6ccc(F)cc6F)C5)cc4)CC3)cc2)c1=O` (stereo partly drawn) [ST0102] stands 0.36%; under `CC[C@@H]([C@H](C)O)n1ncn(-c2ccc(N3CCN(c4ccc(OC[C@@H]5CO[C@@](Cn6c[n+](C(C)OC(=O)N(C)c7ncccc7COC(=O)[C@@H](N)CC(N)=O)cn6)(c6ccc(F)cc6F)C5)cc4)CC3)cc2)c1=O` (stereo partly drawn) [ST0103], 0.29%; under `CC[C@@H]([C@H](C)O)n1ncn(-c2ccc(N3CCN(c4ccc(OC[C@@H]5CO[C@@](Cn6c[n+](C(C)OC(=O)N(C)c7ncccc7COC(=O)[C@@H](N)CCCCN)cn6)(c6ccc(F)cc6F)C5)cc4)CC3)cc2)c1=O` (stereo partly drawn) [ST0104], 0.27%.
Same read-out and setting: under `CC[C@@H]([C@H](C)O)n1ncn(-c2ccc(N3CCN(c4ccc(OC[C@@H]5CO[C@@](Cn6c[n+](C(C)OC(=O)N(C)c7ncccc7COC(=O)[C@@H](N)CO)cn6)(c6ccc(F)cc6F)C5)cc4)CC3)cc2)c1=O` (stereo partly drawn) [ST0105] stands 0.34%; under `CC[C@@H]([C@H](C)O)n1ncn(-c2ccc(N3CCN(c4ccc(OC[C@@H]5CO[C@@](Cn6c[n+](C(C)OC(=O)N(C)c7ncccc7COC(=O)[C@@H](N)[C@@H](C)O)cn6)(c6ccc(F)cc6F)C5)cc4)CC3)cc2)c1=O` (stereo partly drawn) [ST0106], 0.32%.
